We go through three molecules from patent US20230406833A1, “HERBICIDAL MALONAMIDES” (BASF SE, priority 2020, published 2023).

The structures appear in SMILES notation.

Experiment in all cases: greenhouse post-emergence herbicidal test
Format in all cases: in vivo

Test [1] deals with Setaria viridis (SETVI). Conditions: 0.32 kg/ha, scale from 0 to 100. The source says: (§1) The culture containers used were plastic flowerpots containing loamy sand with approximately 3.0% of humus as the substrate. The seeds of the test plants were sown separately for each species.
(§2) For the pre-emergence treatment, the active ingredients, which had been suspended or emulsified in water, were applied directly after sowing by means of finely distributing nozzles. The containers were irrigated gently to promote germination and growth and subsequently covered with transparent plastic hoods until the test plants had rooted. This cover caused uniform germination of the test plants, unless this had been impaired by the active ingredients. For the post-emergence treatment, the test plants were first grown to a height of 3 to 15 cm, depending on the plant habit, and only then treated with the active ingredients which had been suspended or emulsified in water. For this purpose, the test plants were either shown directly and grown in the same containers, or they were first grown separately as seedlings and transplanted into the test containers a few days prior to treatment.
(§3) Depending on the species, the test plants were kept at 10-25° C. or 20-35° C., respectively. The test period extended over 2 to 4 weeks. During this time, the test plants were tended, and their response to the individual treatments was evaluated.
(§4) Evaluation was carried out using a scale from 0 to 100. 100 means no emergence of the test plants, or complete destruction of at least the aerial moieties, and 0 means no damage, or normal course of growth. A good herbicidal activity is given at values of 70 to <90 and a very good herbicidal activity is given at values of 90 to 100.
(§5) The test plants used in the greenhouse experiments were of the following species: […]

The test system of test [2] is Echinocloa crus-galli (ECHCG). Conditions: 0.32 kg/ha, scale from 0 to 100.
Text: as §1, §2, §3, §4, §5

In test [3] the test system is Fallopia convolvulus (POLCO). Conditions: 0.32 kg/ha, scale from 0 to 100.
Text: as §1, §2, §3, §4, §5

Test [4] has as its system Avena fatua (AVEFA). The following applies: Avena fatua, 0.125 kg/ha, scale from 0 to 100, read-out: herbicidal activity against AVEFA.
Text: as §1, §2, §3, §4, §5

Test [5] has as its system Alopercurus myosuroides (ALOMY). Conditions: 0.125 kg/ha, scale from 0 to 100.
Text: as §1, §2, §3, §4, §5

Test [6] deals with Lolium multiflorum (LOLMU). Conditions: 0.125 kg/ha, scale from 0 to 100.
Text: as §1, §2, §3, §4, §5

Test [7] deals with Amaranthus retroflexus (AMARE). The following applies: 0.125 kg/ha, scale from 0 to 100.
Text: as §1, §2, §3, §4, §5

Regarding `CC(C)OC(=O)C1C=CC(NC(=O)C2(C(=O)Nc3cc(F)cc(F)c3)CCO2)C1` (mixture of isomers) [I.4], the “herbicidal activity against SETVI” value in test [1] was “very good (a very good herbicidal activity is given at values of 90 to 100)”. In addition, the “herbicidal activity against ECHCG” value in test [2] is “very good (a very good herbicidal activity is given at values of 90 to 100)”. Further, the “herbicidal activity against POLCO” value in test [3] is “very good (a very good herbicidal activity is given at values of 90 to 100)”.

Regarding `COC(=O)C[C@H](C)NC(=O)C1(C(=O)Nc2cc(Cl)cc(Cl)c2)COCO1` (stereo partly shown) [I.22], in test [4], the pest or weed control at 125 g/ha was 90 to 100%. Moreover, the “herbicidal activity against ALOMY” value in test [5] is “very good (a very good herbicidal activity is given at values of 90 to 100)”. The “herbicidal activity against LOLMU” value in test [6] is on record as “very good (a very good herbicidal activity is given at values of 90 to 100)”.

For `C=C1CCOC1(C(=O)Nc1cc(Cl)cc(Cl)c1)C(=O)NC(C)CC(=O)OC` (stereo not shown) [I.122], the “herbicidal activity against AMARE” value in test [7] is reported as “good (A good herbicidal activity is given at values of 70 to <90)”.
